Data on 13 molecules can be found in ChEMBL document CHEMBL1153701, “Synthesis and evaluation of antiallodynic and anticonvulsant activity of novel amide and urea derivatives of valproic acid analogues” (2009).

In experiment [1] the test system is Mus musculus. Description: Neurotoxicity in CF1 mouse assessed as protection against motor impairment at 300 mg/kg, ip after 4 hrs by rotarod test. The format is functional, organism-based. Also on record: dose 300 mg/kg.
The subject of experiment [2] is Mus musculus. As to the kind of experiment: Antiepileptic activity in CF1 mouse assessed as inhibition of subcutaneous pentylenetetrazole-induced seizures at 100 mg/kg, ip after 0.5 hrs. The arrangement: dose 100 mg/kg. Format: functional, organism-based.
Experiment [3] has as its system Mus musculus. As to the kind of experiment: Neurotoxicity in CF1 mouse assessed as protection against motor impairment at 300 mg/kg, ip after 0.5 hrs by rotarod test. The format is functional, organism-based. The arrangement: dose 300 mg/kg.
The test system of experiment [4] is Mus musculus. As to the kind of experiment: Antiepileptic activity in CF1 mouse assessed as inhibition of subcutaneous pentylenetetrazole-induced seizures at 30 mg/kg, ip after 0.5 hrs. The format is functional, organism-based. Also on record: dose 30 mg/kg.
Experiment [5] concerns Mus musculus. As to the kind of experiment: Neurotoxicity in CF1 mouse assessed as protection against motor impairment at 30 mg/kg, ip after 0.5 hrs by rotarod test. The arrangement: dose 30 mg/kg. Format: functional, organism-based.
Experiment [6] has as its system Mus musculus. Description: Neurotoxicity in CF1 mouse assessed as protection against motor impairment at 100 mg/kg, ip after 4 hrs by rotarod test. The format is functional, organism-based. The arrangement: dose 100 mg/kg.
In experiment [7] the test system is Rattus norvegicus. As to the kind of experiment: Antiallodynic activity in rat assessed as protection against spinal nerve ligation-induced neuropathic pain at 80 mg/kg, ip after 30 mins. Format: functional, organism-based. The arrangement: dose 80 mg/kg.
Experiment [8] has as its system Mus musculus. Description: Antiepileptic activity in CF1 mouse assessed as inhibition of subcutaneous pentylenetetrazole-induced seizures at 300 mg/kg, ip after 0.5 hrs. The format is functional, organism-based. The arrangement: dose 300 mg/kg.
In experiment [9] the test system is Mus musculus. Description: Neurotoxicity in CF1 mouse assessed as protection against motor impairment at 30 mg/kg, ip after 4 hrs by rotarod test. Also on record: dose 30 mg/kg. Format: functional, organism-based.
Experiment [10] has as its system Mus musculus. Description: Antiepileptic activity in CF1 mouse assessed as inhibition of maximal electroshock-induced seizures at 30 mg/kg, ip after 0.5 hrs. The arrangement: dose 30 mg/kg. Format: functional, organism-based.
Experiment [11] deals with Mus musculus. Description: Antiepileptic activity in CF1 mouse assessed as inhibition of maximal electroshock-induced seizures at 300 mg/kg, ip after 0.5 hrs. Format: functional, organism-based. Also on record: dose 300 mg/kg.
Experiment [12] relates to Mus musculus. As to the kind of experiment: Antiepileptic activity in CF1 mouse assessed as inhibition of subcutaneous pentylenetetrazole-induced seizures at 300 mg/kg, ip after 4 hrs. Format: functional, organism-based. Also on record: dose 300 mg/kg.
The test system of experiment [13] is Mus musculus. Description: Antiepileptic activity in CF1 mouse assessed as inhibition of subcutaneous pentylenetetrazole-induced seizures at 100 mg/kg, ip after 4 hrs. Also on record: dose 100 mg/kg. Format: functional, organism-based.
Experiment [14] has as its system Mus musculus. Description: Antiepileptic activity in CF1 mouse assessed as inhibition of maximal electroshock-induced seizures at 100 mg/kg, ip after 4 hrs. The format is functional, organism-based. The arrangement: dose 100 mg/kg.
Experiment [15] deals with Mus musculus. As to the kind of experiment: Antiepileptic activity in CF1 mouse assessed as inhibition of maximal electroshock-induced seizures at 300 mg/kg, ip after 4 hrs. Format: functional, organism-based. The arrangement: dose 300 mg/kg.
The subject of experiment [16] is Mus musculus. Description: Antiepileptic activity in CF1 mouse assessed as inhibition of maximal electroshock-induced seizures at 30 mg/kg, ip after 4 hrs. The format is functional, organism-based. Also on record: dose 30 mg/kg.
Experiment [17] has as its system Rattus norvegicus. As to the kind of experiment: Antiallodynic activity in rat assessed as protection against spinal nerve ligation-induced neuropathic pain at 80 mg/kg, ip after 60 mins. The format is functional, organism-based. Also on record: dose 80 mg/kg.
Experiment [18] relates to Mus musculus. As to the kind of experiment: Antiepileptic activity in CF1 mouse assessed as inhibition of subcutaneous pentylenetetrazole-induced seizures at 30 mg/kg, ip after 4 hrs. The format is functional, organism-based. Also on record: dose 30 mg/kg.
Experiment [19] relates to Mus musculus. As to the kind of experiment: Neurotoxicity in CF1 mouse assessed as protection against motor impairment at 100 mg/kg, ip after 0.5 hrs by rotarod test. The arrangement: dose 100 mg/kg. The format is functional, organism-based.
Experiment [20] deals with Mus musculus. Description: Antiepileptic activity in CF1 mouse assessed as inhibition of maximal electroshock-induced seizures at 100 mg/kg, ip after 0.5 hrs. The format is functional, organism-based. Also on record: dose 100 mg/kg.
The subject of experiment [21] is Rattus norvegicus. As to the kind of experiment: Antiallodynic activity in rat assessed as protection against spinal nerve ligation-induced neuropathic pain at 80 mg/kg, ip after 240 mins. Format: functional, organism-based. Also on record: dose 80 mg/kg.
The subject of experiment [22] is Rattus norvegicus. As to the kind of experiment: Antiallodynic activity in ip dosed rat assessed as protection against spinal nerve ligation-induced neuropathic pain. The format is functional.
The test system of experiment [23] is Mus musculus. Description: Antiepileptic activity in ip dosed CF1 mouse assessed as inhibition of maximal electroshock-induced seizures. Format: functional.
Experiment [24] is filed under the species Rattus norvegicus. As to the kind of experiment: Ratio of ED50 for antiallodynic activity in rat assessed as protection against spinal nerve ligation-induced neuropathic pain to ED50 for antiepileptic activity in rat by maximal electroshock-induced seizures assay. The format is functional.
Experiment [25] has as its system Rattus norvegicus. As to the kind of experiment: Antiallodynic activity in rat assessed as protection against spinal nerve ligation-induced neuropathic pain at 80 mg/kg, ip after 120 mins. Format: functional, organism-based. The arrangement: dose 80 mg/kg.

Each structure is given as a SMILES string. The source made the active and inactive calls. The calls are words filed in the database; no cut-off is given here.

With `CCC(CC)C(N)=O`, the outcome in [1], in [2], in experiment [3], in experiment [4], in [5] and in experiment [6] was inactive. The outcome in experiment [7], in experiment [8], in [9], in experiment [10], in [12] and in experiment [13] was inactive. Also, the result in experiment [14], in experiment [15], in experiment [16], in [17] and in [18] was inactive. In addition, the outcome in experiment [11] was Active.

`CCCC(CC(C)C)C(N)=O` (stereo not given): the result in [19], in [1], in experiment [2], in experiment [4], in experiment [5] and in experiment [6] was inactive. Moreover, the outcome in [20], in experiment [9], in [10], in experiment [12], in [13] and in experiment [14] was inactive. Moreover, the result in experiment [15], in experiment [16], in experiment [21] and in experiment [18] was inactive. Moreover, the outcome in [3], in experiment [8] and in experiment [11] was Active.

Take `CCCC(C(N)=O)C(C)C` (stereo not given): the ED50 amounted to 42 mg/kg in experiment [22] and 22 mg/kg in experiment [23]. Moreover, the ratio in [24] was 0.52.

As for `CCCC(C(=O)NC)C(C)C` (stereo not given), the result in experiment [19], in experiment [1], in experiment [2], in experiment [4], in experiment [5] and in experiment [6] was inactive. The outcome in experiment [7], in [20], in experiment [9], in experiment [10], in experiment [11] and in [12] was inactive. For the same molecule, the outcome in experiment [13], in experiment [14], in experiment [15], in experiment [16] and in [18] was inactive. Besides, the result in experiment [3] and in experiment [8] was Active.

In the case of `CC(C)(C)C(N)=O`, the outcome in experiment [19], in [1], in experiment [3], in [4], in [5] and in experiment [6] was inactive. Besides, the result in experiment [8], in experiment [20], in experiment [9], in experiment [10], in experiment [11] and in [12] was inactive. For the same molecule, the outcome in [13], in [14], in experiment [15], in [16], in experiment [21] and in experiment [18] was inactive.

For `CCC(C)C(C(N)=O)C(C)C` (stereo not given), the result in experiment [19], in experiment [2], in experiment [3], in [8], in experiment [20] and in experiment [11] was Active. In addition, in experiment [22], the ED50 worked out at 50 mg/kg. The result in experiment [4], in [5], in experiment [6], in [9], in [10] and in [12] was inactive. Moreover, the outcome in experiment [13], in experiment [14], in experiment [15], in experiment [16] and in [18] was inactive. Besides, the ED50 entry in experiment [23] was “inactive”.

For `CCCC(CCC)C(N)=O` [VALPROMIDE], the ED50 in [22] was found to be 61 mg/kg; in experiment [23] it was 32 mg/kg. Further, the ratio in [24] stood at 0.52.

For the molecule `CC(C)C(C(N)=O)C(C)C`, the ED50 in [22] was determined as 58 mg/kg; in [23], 51 mg/kg. In addition, the ratio in [24] was found to be 0.88.

Consider `CCCC(C)C(N)=O` (stereo not given), for which the outcome in experiment [19], in experiment [1], in experiment [2], in experiment [3], in experiment [4] and in experiment [5] was inactive. Besides, the result in experiment [6], in [7], in [8], in experiment [20], in experiment [9] and in [10] was inactive. Besides, the outcome in [11], in experiment [12], in experiment [13], in experiment [14], in [15] and in experiment [16] was inactive. In addition, the result in experiment [17] and in experiment [18] was inactive.

For the molecule `CCC(C)C(N)=O` (stereo not given), the result in experiment [19], in experiment [1], in [2], in experiment [3], in experiment [4] and in experiment [5] was inactive. Also, the outcome in experiment [6], in experiment [7], in experiment [8], in experiment [25], in [20] and in experiment [9] was inactive. In addition, the result in experiment [10], in [11], in experiment [12], in [13], in [14] and in experiment [15] was inactive. In addition, the outcome in [16], in experiment [17] and in experiment [18] was inactive.

For the molecule `CCC(C)C(CC)C(N)=O` (stereo not given) [VALNOCTAMIDE], the ED50 in experiment [22] was 52 mg/kg; in experiment [23] it was 29 mg/kg. The ratio in [24] was 0.56.

On to `CC(C)(C)C(=O)NC(N)=O`, for which the outcome in experiment [7] and in [21] was inactive.

`CC(C)CC(C(N)=O)C(C)C` (stereo not given): the outcome in experiment [1], in experiment [2], in experiment [4], in [5], in experiment [6] and in [20] was inactive. The outcome in experiment [9], in experiment [10], in experiment [11], in [12], in experiment [13] and in experiment [14] was inactive. The outcome in experiment [15], in experiment [16], in experiment [21] and in experiment [18] was inactive. In experiment [8], the outcome was Active.
